Patent publication US20100267561A1, “HERBICIDAL PYRIDAZINONE DERIVATIVES” (priority 2007, published 2010)

Tests used:
Format in all cases: in vivo
[1] = tested on: wild mustard (Sinapis arvensis); assay: Test C pre-/postemergence plant response
Summary of the method: (§1)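 Scores (0 = no effect, 100 = complete control) are visual assessments made against control plants 15–25 days post-treatment in a controlled environment. Applications were preemergence and postemergence, with postemergence plants between 1- and 4-leaf stage.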

[2] = tested on: annual bluegrass (Poa annua); assay: Test C pre-/postemergence plant response
Summary of the method: as §1

[3] = tested on: winter barley (Hordeum vulgare); assay: Test C pre-/postemergence plant response
Summary of the method: as §1

[4] = tested on: Italian ryegrass (Lolium multiflorum); assay: Test C pre-/postemergence plant response
Summary of the method: as §1

[5] = tested on: blackgrass (Alopecurus myosuroides); assay: Test C pre-/postemergence plant response
Summary of the method: as §1

[6] = tested on: downy bromegrass (Bromus tectorum); assay: Test C pre-/postemergence plant response
Summary of the method: as §1

[7] = tested on: spring barley (Hordeum vulgare); assay: Test C pre-/postemergence plant response
Summary of the method: as §1

[8] = tested on: canarygrass (Phalaris minor); assay: Test C pre-/postemergence plant response
Summary of the method: as §1

[9] = tested on: winter wheat (Triticum aestivum); assay: Test C pre-/postemergence plant response
Summary of the method: as §1

[10] = tested on: windgrass (Apera spica-venti); assay: Test C pre-/postemergence plant response
Summary of the method: as §1

[11] = tested on: green foxtail (Setaria viridis); assay: Test C pre-/postemergence plant response
Summary of the method: as §1

[12] = tested on: wild oat (Avena fatua); assay: Test C pre-/postemergence plant response
Summary of the method: as §1

[13] = tested on: large crabgrass (Digitaria sanguinalis); assay: Test A pre-/postemergence plant response
Summary of the method: (§2)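 Seeds were planted in blended loam soil and sand, then treated preemergence by directed soil spray. At that time, emerged plants (one- to two-leaf, 2–10 cm) received postemergence applications of the same surfactant-containing formulation. Injury was assessed visually on a 0–100 scale after approximately 10 days.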

[14] = tested on: giant foxtail (Setaria faberi); assay: Test A pre-/postemergence plant response
Summary of the method: as §2

[15] = tested on: velvetleaf (Abutilon theophrasti); assay: Test A pre-/postemergence plant response
Summary of the method: as §2

[16] = Postemergence, 8 g ai/ha, scale 0 to 100, 0 no effect, 100 complete control
[17] = Postemergence, 16 g ai/ha, scale 0 to 100, 0 no effect, 100 complete control
[18] = Postemergence, 31 g ai/ha, scale 0 to 100, 0 no effect, 100 complete control
[19] = Postemergence, 62 g ai/ha, scale 0 to 100, 0 no effect, 100 complete control
[20] = Preemergence, 8 g ai/ha, scale 0 to 100 (0 no effect, 100 complete control)
[21] = Preemergence, 16 g ai/ha, scale 0 to 100 (0 no effect, 100 complete control)
[22] = Preemergence, 31 g ai/ha, scale 0 to 100 (0 no effect, 100 complete control)
[23] = Preemergence, 62 g ai/ha, scale 0 to 100, 0 no effect, 100 complete control
[24] = Postemergence, 31 g ai/ha, 0 to 100 scale, 0 no effect, 100 complete control
[25] = Postemergence, 125 g ai/ha, 0 to 100 scale, 0 no effect, 100 complete control
[26] = Preemergence, 31 g ai/ha, 0 to 100 scale, 0 is no effect, 100 is complete control
[27] = Preemergence, 125 g ai/ha, 0 to 100 scale (0 no effect, 100 complete control)

Cc1cc(-c2ccc(Cl)cc2)nn1-c1c(OC(=O)CC(C)C)cnn(C)c1=O [Compound 37]
Plant response rating, Mustard, Wild [1, 16]: 0
Plant response rating, Mustard, Wild [1, 17]: 0
Plant response rating, Mustard, Wild [1, 18]: 0
Plant response rating, Mustard, Wild [1, 19]: 0
Plant response rating, Mustard, Wild [1, 20]: 0
Plant response rating, Mustard, Wild [1, 21]: 0
Plant response rating, Mustard, Wild [1, 22]: 0
Plant response rating, Mustard, Wild [1, 23]: 0
Plant response rating, Bluegrass [2, 16]: 0
Plant response rating, Bluegrass [2, 17]: 20
Plant response rating, Bluegrass [2, 18]: 20
Plant response rating, Bluegrass [2, 19]: 20
Plant response rating, Bluegrass [2, 20]: 0
Plant response rating, Bluegrass [2, 21]: 35
Plant response rating, Bluegrass [2, 22]: 60
Plant response rating, Bluegrass [2, 23]: 70
Plant response rating, Barley, Winter [3, 16]: 10
Plant response rating, Barley, Winter [3, 17]: 10
Plant response rating, Barley, Winter [3, 18]: 25
Plant response rating, Barley, Winter [3, 19]: 95
Plant response rating, Barley, Winter [3, 20]: 0
Plant response rating, Barley, Winter [3, 21]: 0
Plant response rating, Barley, Winter [3, 22]: 20
Plant response rating, Barley, Winter [3, 23]: 40
Plant response rating, Ryegrass, Italian [4, 16]: 75
Plant response rating, Ryegrass, Italian [4, 17]: 95
Plant response rating, Ryegrass, Italian [4, 18]: 100
Plant response rating, Ryegrass, Italian [4, 19]: 100
Plant response rating, Ryegrass, Italian [4, 20]: 0
Plant response rating, Ryegrass, Italian [4, 21]: 80
Plant response rating, Ryegrass, Italian [4, 22]: 98
Plant response rating, Ryegrass, Italian [4, 23]: 100
Plant response rating, Blackgrass [5, 16]: 65
Plant response rating, Blackgrass [5, 17]: 90
Plant response rating, Blackgrass [5, 18]: 100
Plant response rating, Blackgrass [5, 19]: 100
Plant response rating, Blackgrass [5, 20]: 35
Plant response rating, Blackgrass [5, 21]: 75
Plant response rating, Blackgrass [5, 22]: 90
Plant response rating, Blackgrass [5, 23]: 98
Plant response rating, Bromegrass, Downy [6, 16]: 20
Plant response rating, Bromegrass, Downy [6, 17]: 30
Plant response rating, Bromegrass, Downy [6, 18]: 50
Plant response rating, Bromegrass, Downy [6, 19]: 70
Plant response rating, Bromegrass, Downy [6, 20]: 0
Plant response rating, Bromegrass, Downy [6, 21]: 0
Plant response rating, Bromegrass, Downy [6, 22]: 60
Plant response rating, Bromegrass, Downy [6, 23]: 85
Plant response rating, Barley, Spring [7, 16]: 0
Plant response rating, Barley, Spring [7, 17]: 20
Plant response rating, Barley, Spring [7, 18]: 50
Plant response rating, Barley, Spring [7, 19]: 100
Plant response rating, Barley, Spring [7, 20]: 0
Plant response rating, Barley, Spring [7, 21]: 0
Plant response rating, Barley, Spring [7, 22]: 15
Plant response rating, Barley, Spring [7, 23]: 40
Plant response rating, Canarygrass [8, 16]: 0
Plant response rating, Canarygrass [8, 17]: 35
Plant response rating, Canarygrass [8, 18]: 75
Plant response rating, Canarygrass [8, 19]: 100
Plant response rating, Canarygrass [8, 20]: 15
Plant response rating, Canarygrass [8, 21]: 60
Plant response rating, Canarygrass [8, 22]: 80
Plant response rating, Canarygrass [8, 23]: 95
Plant response rating, Wheat, Winter [9, 16]: 0
Plant response rating, Wheat, Winter [9, 17]: 30
Plant response rating, Wheat, Winter [9, 18]: 60
Plant response rating, Wheat, Winter [9, 19]: 90
Plant response rating, Wheat, Winter [9, 20]: 0
Plant response rating, Wheat, Winter [9, 21]: 15
Plant response rating, Wheat, Winter [9, 22]: 25
Plant response rating, Wheat, Winter [9, 23]: 90
Plant response rating, Windgrass [10, 16]: 0
Plant response rating, Windgrass [10, 17]: 0
Plant response rating, Windgrass [10, 18]: 15
Plant response rating, Windgrass [10, 19]: 30
Plant response rating, Windgrass [10, 20]: 0
Plant response rating, Windgrass [10, 21]: 20
Plant response rating, Windgrass [10, 22]: 60
Plant response rating, Windgrass [10, 23]: 80
Plant response rating, Foxtail, Green [11, 16]: 90
Plant response rating, Foxtail, Green [11, 17]: 100
Plant response rating, Foxtail, Green [11, 18]: 100
Plant response rating, Foxtail, Green [11, 19]: 100
Plant response rating, Foxtail, Green [11, 20]: 75
Plant response rating, Foxtail, Green [11, 21]: 90
Plant response rating, Foxtail, Green [11, 22]: 100
Plant response rating, Foxtail, Green [11, 23]: 100
Plant response rating, Oat, Wild [12, 16]: 25
Plant response rating, Oat, Wild [12, 17]: 80
Plant response rating, Oat, Wild [12, 18]: 90
Plant response rating, Oat, Wild [12, 19]: 95
Plant response rating, Oat, Wild [12, 20]: 20
Plant response rating, Oat, Wild [12, 21]: 20
Plant response rating, Oat, Wild [12, 22]: 70
Plant response rating, Oat, Wild [12, 23]: 80
Plant response rating, Crabgrass, Large [13, 24]: 50
Plant response rating, Crabgrass, Large [13, 25]: 90
Plant response rating, Crabgrass, Large [13, 26]: 80
Plant response rating, Crabgrass, Large [13, 27]: 100
Plant response rating, Foxtail, Giant [14, 24]: 80
Plant response rating, Foxtail, Giant [14, 25]: 100
Plant response rating, Foxtail, Giant [14, 26]: 100
Plant response rating, Foxtail, Giant [14, 27]: 100
Plant response rating, Velvetleaf [15, 24]: 0
Plant response rating, Velvetleaf [15, 25]: 0
Plant response rating, Velvetleaf [15, 26]: 0
Plant response rating, Velvetleaf [15, 27]: 0
